Reference: US20230172901A1, “COMPOSITIONS AND METHODS FOR THE PROPHYLAXIS AND TREATMENT OF FIBROTIC AND INFLAMMATORY CONDITIONS” (GRETALS AUSTRALIA PTY LTD, priority 2020, published 2023)
“Also recorded” adds a separate entry of the source.

Legend:
Assay type in all cases: in vivo
[1] = system: sheep model for pulmonary fibrosis, bleomycin-injured lung segments; assay: Example 2: histopathology scoring (H&E; inflammation, fibrosis, overall pathology)
Protocol: Histopathology of lung parenchyma was assessed by an experienced pathologist blinded to the treatment groups using a semi-quantitative scoring system. Briefly, the criteria used gives score indices separately for both inflammation and fibrosis pathology, and these score indices added together give an ‘overall pathology score’.
(§1) In this study, a total of 10 sheep were used. Fibrosis in two lung segments of each sheep in a similar manner as performed in Example 1 herein. Using this procedure (as detailed further below) the fibrosis was confined to small, isolated regions in the lungs leaving the remaining 90-95% of the healthy unaffected lungs to undertake normal respiratory function.
(§2) All sheep (n=10) in the study were challenged with 2 single doses of bleomycin (3 units) per lung segment, a fortnight apart and the animals were kept for a little over 5 weeks after the final bleomycin dose. Bleomycin is a well-known agent for inducing fibrosis in the lungs. The administration procedure involves inserting a bronchoscope into lung segments in the right and left lung, and then slowly infusing the bleomycin into two segments as shown in FIG. 2 via the bronchoscope biopsy port.
(§3) In the study detailed in Example 1 herein, the dose-rate of pinocembrin was 7 mg pinocembrin per sheep, per week.
For control purposes the lung segment in the opposite lung was used as a bleomycin-positive, without drug, control, as indicated in FIG. 1. The bioactive molecules in vehicle, were delivered as 5 ml infusions through the biopsy port of the bronchoscope. Note that to nullify any small differences (e.g. physiological or anatomical etc.) between the left and right lungs, the infusions of pinocembrin were randomized between the left and right caudal lung segments. Half the animals (5 sheep) received pinocembrin to the right caudal lung segments, while the other 5 sheep received pinocembrin to the left caudal lung segments. The right medial lung segment was left untreated and used for healthy lung control tissue which was sampled at autopsy (FIG. 2).
Following euthanasia, the lungs were removed, and targeted lung-segments identified and carefully dissected free from surrounding tissue. Individual segments were then inflated with a 1:1 mixture of Optimal Cutting Temperature Compound (OCT, ProSciTech Ltd Pty) and sterile PBS solution, under pressure of approximately 20 cm/H2O. Several serial transverse sections of the inflated segment were fixed in 10% neutral-buffered formalin and processed in paraffin for histopathological assessment. Remaining lung slices were embedded in OCT and frozen in cryo-moulds on aluminium boats floating on liquid nitrogen for immunochemistry analyses.
Paraffin-embedded tissue sections (5 μm) were stained with haematoxylin and eosin Y (H&E) for general histology and with Masson's trichrome staining to identify changes to collagen content within the lung parenchyma.
Histopathology of the lung parenchyma was assessed using a semi-quantitative scoring system as outline in Example 1 herein. […] For each H&E stained section, 10 consecutive, non-overlapping fields at ×20 magnification were graded based on the scoring criteria for fibrosis, inflammation and overall pathology scores as outlined in Example 1 herein. The areas were selected away from large airways and major blood vessels. Scores from all ten fields were then averaged to give representative scores for the parameters assessed in the sectioned lung segment.

[2] = system: sheep model for pulmonary fibrosis, bleomycin-injured lung segments; assay: Example 2: Masson's trichrome assay of connective tissue content
Text: as §1
All sheep (n=10) in the study were challenged with 2 single doses of bleomycin (3 units) per lung segment, a fortnight apart and the animals were kept for a little over 5 weeks after the final bleomycin dose. Bleomycin is a well-known agent for inducing fibrosis in the lungs. […]
The degree of fibrosis was quantified by assessing the changes in overall connective tissue content within the parenchymal tissue using methods known to the skilled person. […] The images were then analysed using Image-Pro® Plus (Version 6.3 for Windows, Media Cybernetics, Bethesda, Md., USA) using the ‘colour selector’ tool to measure the area of blue-stained tissues (collagen and other connective tissues) within each field of view. […] The fraction of blue stained tissue area was expressed as a percentage per total field area (percentage of blue stained tissue area per total field area). […]

[3] = system: sheep model for pulmonary fibrosis; assay: Example 2: overall conclusion on efficacy in sheep model of pulmonary fibrosis
Text: as §1, §2, §3
For control purposes the lung segment in the opposite lung was used as a bleomycin-positive, without drug, control, as indicated in FIG. 1. The bioactive molecules in vehicle, were delivered as 5 ml infusions through the biopsy port of the bronchoscope. […]

[4] = individual sheep data, 10 sheep
[5] = vs segments which received bleomycin infusion only, 4 weekly treatments of 7 mg, n=10 sheep

SMILES: O=C1CC(c2ccccc2)Oc2cc(O)cc(O)c21 (centres unmarked) [pinocembrin, 5,7-Dihydroxy-2-Phenyl-2,3-Dihydro-4H-Chromen-4-One]
- sheep having improved fibrosis scores [1, 4]: eight out of ten
- sheep having improved inflammation scores [1, 4]: nine out of ten
- sheep having improved overall pathology scores [1, 4]: Nine out of ten
- fibrosis score (histopathology), difference ([1]; lower than segments which received bleomycin infusion only, 4 weekly treatments of 7 mg, n=10 sheep): not statistically significant
- pathology scores (all three parameters) compared with untreated control lung segments ([1]; pinocembrin-treated bleomycin segments vs untreated control segments, n=10 sheep): significantly higher
- inflammation score (histopathology) [1, 5]: significantly lower; also recorded: significantly improved
- overall pathology score (histopathology) [1, 5]: significantly lower; also recorded: significantly improved
- sheep with decreased percentage blue values ([2]; individual sheep data, vs bleomycin injury without pinocembrin, 10 sheep): nine out of ten
- percentage blue staining, Masson's Trichrome stained connective tissue ([2]; vs bleomycin-infused lung without pinocembrin, 4 weekly treatments of 7 mg, n=10 sheep): significantly reduces; also recorded: significant decrease; also recorded: significantly lower
- anti-inflammatory properties (overall) ([3]; from BAL cell and parenchymal T cell data): strong anti-inflammatory properties
- anti-fibrotic effect (overall) ([3]; from fibrosis scores, Masson's trichrome and hydroxy proline assays): modest anti-fibrotic effect
